The values that follow come from patent US20020192637A1, “Biological Sensor” (priority 1999, published 2002).

Data set [1] has as its system hippocampal neuronal cell cultures. In words: Acute addition of antimicrobial agents to spontaneously active hippocampal neuronal cultures on MMEP plates. It is filed as cell-based, rat. The note with it: for effect on spontaneous activity at up to 10 times the normal concentration/volume: sequential 10 μl additions up to 10 times normal; for effect on spontaneous activity (firing) of the monitored channel: acute addition (10 μl) at the concentration used routinely in tissue culture, hippocampal cultures grown 4 weeks antibiotic-free; for effect of further sequential 10 μl additions: subsequent 10 μl aliquots (penicillin G up to 100 μl at approx. 10 second intervals). Here is the method:
Acute administration of antibiotic compounds to neuronal cell cultures: the majority of experiments involved the investigation of acute addition of a range of antibiotics to hippocampal cultures grown in antibiotic-free Neurobasal medium for 4 weeks. In each case MMEP's were screened for activity and a strong, reliable channel was selected for experimentation. Each antibiotic was tested on at least 3 individual cultures and the antibiotic addition was started at the concentration used routinely in tissue culture studies. As controls, the anti-fungal agents Nystatin and Amphotericin B (Fungizone), and the anti-mycoplasma (PPLO) agent Tylosin were also tested. In addition, the agent in which the antibiotic compound was dissolved (usually deionised water or 0.9% sodium chloride), as well as normal medium, were also tested for any effects on neuronal activity. Particular interest was paid to the effects of penicillin G, streptomycin and penicillin/streptomycin mixtures. These are routinely used in tissue culture medium and therefore any possible toxic effects are particularly relevant.

Data set [2] relates to P19 cell line. The data set is described as follows: Differentiation of P19 cell line with retinoic acid. It is filed as cell-based, mouse. The following applies: retinoic acid in differentiation medium. Here is the method:
Differentiation: MEM+0.1% FBS+L-Glutamine (2 mM)+Non-essential Amino acids (1×)+30 uM retinoic acid
Neurobasal+B27+Non-essential Amino acids (1×)+L-Glutamine (2 mM)+30 uM retinoic acid
Differentiation experiments have been performed on the P19 cell line using retinoic acid. […] However, only 60-70% of the cells responded to the stimulus, such that over an extended period the non-neuronal cells proliferate vigorously and kill the neuronal cells. The use of serum-free medium has overcome this problem but cultures appear unhealthy after a period of 2 weeks.

In data set [3] the test system is hippocampal cultures. The data set is described as follows: Chronic administration of antibiotics to hippocampal cultures grown over 4 weeks, neuronal network activity. In kind it is cell-based, rat. On the procedure:
Effects of antibiotics on neuronal network activity: chronic administration of antibiotics to neuronal cell cultures. The chronic effect of antibiotics on neuronal network activity was investigated. Experiments were performed on hippocampal cultures grown in parallel, from the same cell preparation, in the presence or absence of penicillin-streptomycin or gentamycin at the recommended doses.

For data set [4], the system named is guinea pigs. The following applies: high doses, administered chronically to guinea pigs; cited from earlier work.

In the case of `C[C@@H]1[C@H](O)[C@@H](C)/C=C/C=C/CC/C=C/C=C/C=C/C=C/C(O[C@H]2O[C@H](C)[C@@H](O)[C@H](N)[C@@H]2O)CC2O[C@](O)(CC(O)C(O)CCC(O)CC(O)CC(O)CC(=O)O[C@H]1C)CC(O)C2C(=O)O` (stereo partly drawn) [Nystatin], in data set [1], the “effect on spontaneous activity at up to 10 times the normal concentration/volume” value is “No inhibition of activity”.

In the case of `CC1(C)S[C@@H]2[C@H](NC(=O)Cc3ccccc3)C(=O)N2[C@H]1C(=O)O` [Penicillin G], in data set [1], the “effect on spontaneous activity (firing) of the monitored channel” value (“effect on spontaneous activity (firing)” below) was “immediate increase in the firing rate”; the “effect on spontaneous activity at up to 10 times the normal concentration/volume” value is “initial acceleration of the firing rate, with an accompanied reduction in spike amplitude”; the “effect of further sequential 10 μl additions” value is recorded as “further decrease in the amplitude with eventual slowing of the firing rate”. In addition, the “effect on spike amplitude” value in data set [1] (acute addition of 10 μl) is “small associated decrease in the amplitude”.

For the molecule `[H]/N=C(/N)N[C@H]1[C@H](O)[C@@H](O)[C@H](O[C@@H]2O[C@@H](C)[C@](O)(C=O)[C@H]2O[C@@H]2O[C@@H](CO)[C@H](O)[C@@H](O)[C@@H]2NC)[C@@H](N/C(N)=N\[H])[C@@H]1O` [Streptomycin], the “silence before activity begins to recover” value in data set [1] (10 μl, particularly strong (>500(V) channel, without change of medium)) was “approximately 30 seconds”. Moreover, in data set [1], the “effect on spontaneous activity (firing)” value is on record as “immediate cessation of firing” and the “effect of further sequential 10 μl additions” value is “immediate interruption of activity”. Also, the “effect on channel with weak activity” value in data set [1] (weak activity (<500 μV), single 10 μl addition) was “sufficient to inhibit activity for several minutes”.

Regarding `CC[C@H]1OC(=O)C[C@@H](O)[C@H](C)[C@@H](O[C@@H]2O[C@H](C)[C@@H](O[C@H]3C[C@@](C)(O)[C@@H](O)[C@H](C)O3)[C@H](N(C)C)[C@H]2O)[C@@H](CC=O)C[C@@H](C)C(=O)/C=C/C(C)=C/[C@@H]1CO[C@@H]1O[C@H](C)[C@@H](O)[C@@H](OC)[C@H]1OC` [Tylosin], the “effect on spontaneous activity at up to 10 times the normal concentration/volume” value in data set [1] is on record as “No inhibition of activity”.

With `C[C@@H]1[C@H](O)[C@@H](C)/C=C/C=C/C=C/C=C/C=C/C=C/C=C/[C@H](O[C@@H]2O[C@H](C)[C@@H](O)[C@H](N)[C@@H]2O)C[C@@H]2O[C@](O)(C[C@@H](O)C[C@@H](O)[C@H](O)CC[C@@H](O)C[C@@H](O)CC(=O)O[C@H]1C)C[C@H](O)[C@H]2C(=O)O` [amphotericin B, Amphotericin B], the “effect on spontaneous activity at up to 10 times the normal concentration/volume” value in data set [1] is “No inhibition of activity”.

As to `CC1=C(/C=C/C(C)=C/C=C/C(C)=C/C(=O)O)C(C)(C)CCC1` [retinoic acid], in data set [2], the “proportion of cells that responded to the stimulus” value is recorded as 60-70%.

Gentamicin: in data set [3] (cultures grown for several weeks in the presence of the antibiotic), the “long-term effect indicated by poor frequency of activity detection” value is listed as “toxic effect”. Besides, in data set [3] (recommended doses, grown over a 4-week period), the “effect on neuronal network activity after chronic presence” value was “almost complete cessation of activity”. Moreover, the “effect on neuronal cytoarchitecture” value in data set [4] is on record as “major structural changes in neuronal cytoarchitecture”. In addition, the “effect on spontaneous activity (firing)” value in data set [1] was “cessation of neuronal activity”. Further, the reversibility of inhibition entry in data set [1] (complete medium change within the MMEP culture apparatus) was “reversed by a complete medium change”.

Polymyxin ‘B’: in data set [1], the “effect on spontaneous activity (firing)” value is listed as “inhibition of activity”.
